17 compounds from ChEMBL document CHEMBL3769335, “Non-symmetrical furan-amidines as novel leads for the treatment of cancer and malaria” (Eur J Med Chem, 2016) can be followed below.

Calls of active or inactive are those of the source. The calls are words filed in the database; no cut-off is given here.

The target in series [1] is T1, Ribosyldihydronicotinamide dehydrogenase [quinone] (Homo sapiens, UniProt P16083).
T1 sequence (P16083 whole entry): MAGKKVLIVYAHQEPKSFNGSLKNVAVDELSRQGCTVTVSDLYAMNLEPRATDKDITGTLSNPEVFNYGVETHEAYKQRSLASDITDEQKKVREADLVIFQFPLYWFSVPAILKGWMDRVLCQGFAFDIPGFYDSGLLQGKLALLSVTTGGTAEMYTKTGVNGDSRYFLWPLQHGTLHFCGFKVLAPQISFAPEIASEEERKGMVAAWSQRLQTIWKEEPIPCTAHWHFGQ
In words: Inhibition of human recombinant NQO2 using DCPIP as substrate and NRH as cofactor in absence of BSA.

For series [2], the target named is T1, Ribosyldihydronicotinamide dehydrogenase [quinone]. Nature of the series: Inhibition of human recombinant NQO2 using DCPIPas substrate and NRH as cofactor measured for 1 min by spectrophotometry in the absence of BSA.
For series [3] the target is unchanged. Nature of the series: Inhibition of human recombinant NQO2 using DCPIPas substrate and NRH as cofactor measured for 1 min by spectrophotometry in the prsence of BSA.
The subject of series [4] is MDA-MB-468. In words: Cytotoxicity against human MDA-MB-468 cells after 96 hrs by MTT assay. Format: functional, cell-based. The conditions noted are these: MDA-MB-468, 96 h. In general terms: Formazan colour is commonly taken as a measure of viable cells.
Series [5] relates to MDA-MB-231. Nature of the series: Cytotoxicity against human MDA-MB-231 cells after 96 hrs by MTT assay. The class given is functional, cell-based. To be noted: MDA-MB-231, 96 h.
In series [6] the test system is MCF7. In words: Cytotoxicity against human MCF7 cells after 96 hrs by MTT assay. The class given is functional, cell-based. To be noted: MCF7, 96 h.
The subject of series [7] is T47D. Nature of the series: Cytotoxicity against human T47D cells after 96 hrs by MTT assay. Format: functional, cell-based.
Series [8] in a line: Drug uptake in Plasmodium falciparum 3D7 nucleus. The class given is ADME.
The test system of series [9] is Calf thymus DNA. To be noted: Bos taurus.
Description: Binding affinity to calf thymus DNA assessed as change in melting temperature by UV-visible spectrophometry
Series [10] addresses NAD(P)H dehydrogenase [quinone] 1 (Homo sapiens) (UniProt P15559). In words: Inhibition of human recombinant NQO1 using NADH as substrate at 10 uM measured for 1 min by spectrophotometry in presence of BSA.
For series [11], the system named is MDA-MB-468. Nature of the series: Cytotoxicity against human MDA-MB-468 cells at 10 uM after 96 hrs by MTT assay. Format: functional, cell-based.
The test system of series [12] is MDA-MB-231. Nature of the series: Cytotoxicity against human MDA-MB-231 cells at 10 uM after 96 hrs by MTT assay. The class given is functional, cell-based.
Series [13] concerns MCF7. In words: Cytotoxicity against human MCF7 cells at 10 uM after 96 hrs by MTT assay. Format: functional, cell-based.
Series [14] relates to T47D. In words: Cytotoxicity against human T47D cells at 10 uM after 96 hrs by MTT assay. Format: functional, cell-based.
Series [15] has as its target NAD(P)H dehydrogenase [quinone] 1 (Homo sapiens) (UniProt P15559). Nature of the series: Inhibition of human recombinant NQO1 using NADH as substrate at 10 uM measured for 1 min by spectrophotometry in absence of BSA.
The test system of series [16] is Plasmodium falciparum. Nature of the series: Antimalarial activity against Plasmodium falciparum 3D7 infected in erythrocyte assessed as growth inhibition after 4 days by flow cytometry. To be noted: 3D7, 96 h. Format: functional, organism-based. Background: Flow cytometry measures light scatter and fluorescence of single cells or particles in a stream.

Chain of NAD(P)H dehydrogenase [quinone] 1 (Homo sapiens) (P15559 whole entry): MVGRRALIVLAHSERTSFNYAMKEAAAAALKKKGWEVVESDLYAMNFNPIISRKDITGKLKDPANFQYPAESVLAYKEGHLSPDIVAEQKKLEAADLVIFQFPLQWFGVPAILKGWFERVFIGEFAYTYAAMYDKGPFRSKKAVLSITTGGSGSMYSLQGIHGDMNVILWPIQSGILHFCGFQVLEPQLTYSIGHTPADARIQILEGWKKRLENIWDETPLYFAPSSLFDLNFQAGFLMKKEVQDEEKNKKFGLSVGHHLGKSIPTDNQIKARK

One may read the IC50 as the midpoint of a concentration-inhibition curve. Take `Cc1c(-c2ccc(C(=N)N)cc2)oc(-c2ccc(C(=N)N)cc2)c1C`: the IC50 in series [1] worked out at 50 nM.
What is called ΔTm is the shift of the melting midpoint relative to a reference. Take `CC(=O)O.CC(=O)O.N=C(N)c1ccc(-c2ccc(-c3ccc(C(=N)N)cc3)o2)cc1`: the half-maximal inhibitory concentration (IC50) in series [2] was 35 nM; in series [3], 72 nM; in [4], 14000 nM; in series [5], 12500 nM; in series [6] it was 13600 nM; in series [7], 12800 nM. Moreover, the IC50 in series [1] came to 630 nM. In addition, in series [8], the Drug uptake entry is given as “Active”. Besides, the ΔTm in series [9] was 20 °C.
As to `N=C(N)c1cccc(-c2ccc(-c3ccccc3)o2)c1`, the inhibition entry in [10] and in series [15] was “inactive” in each case. The outcome in series [11], in series [12], in series [13] and in series [14] was inactive.
In the case of `N=C(N)c1ccc(-c2ccc(-c3cccc([N+](=O)[O-])c3)o2)cc1`, the IC50 in series [2] is 14.5 nM; in series [3], 28 nM; in series [4], 3300 nM; in series [5], 2900 nM; in series [6] it was 3000 nM; in series [7] it was 3300 nM.
As to `Cn1c(-c2ccccc2)ccc1-c1ccc(C(=N)N)cc1`, the IC50 amounted to 410 nM in [2]; 943 nM in series [3]; 3800 nM in series [4]; 2600 nM in series [5]; 2700 nM in [6]; 2100 nM in series [7]. Besides, the ΔTm in series [9] worked out at 0.9 °C.
Regarding `Oc1ccc(/C=C/c2cc(O)cc(O)c2)cc1` [RESVERATROL], the IC50 was determined as 58000 nM in series [4], 57000 nM in series [5], 62000 nM in series [6] and 59000 nM in series [7].
For `COc1cccc2c1C(=O)c1c(O)c3c(c(O)c1C2=O)C[C@@](O)(C(=O)CO)C[C@@H]3O[C@H]1C[C@H](N)[C@H](O)[C@H](C)O1`, the ΔTm in series [9] came out at 20.5 °C.
For the compound `N=C(N)c1ccc(-c2ccc(-c3ccc([N+](=O)[O-])cc3)o2)cc1`, the IC50 in series [2] amounted to 15.2 nM; in [3], 24 nM; in [4] it was 3400 nM; in series [5], 3100 nM; in [6], 3200 nM; in series [7], 3800 nM.
For `CCc1ccc(-c2ccc(-c3ccc(C(=N)N)cc3)o2)cc1`, the IC50 in series [2] came to 202 nM; in series [3], 312 nM; in series [4], 3300 nM; in series [5], 3400 nM; in [6], 3200 nM; in series [7] it was 3000 nM.
Regarding `CC(=O)O.COc1ccc(-c2ccc(-c3ccc(C(=N)N)cc3)o2)cc1`, the IC50 in series [2] was found to be 107 nM; in series [3] it was 141 nM; in series [4] it was 2200 nM; in series [5], 2500 nM; in series [6], 2800 nM; in series [7], 3000 nM. Moreover, the IC50 in series [16] was found to be 139 nM. In addition, the Drug uptake entry in series [8] was “Not Active”. For the same compound, the ΔTm in series [9] worked out at 2 °C.
On to `CC(=O)O.N=C(N)c1ccc(-c2ccc(-c3ccc(F)cc3)o2)cc1`, for which the IC50 in series [2] is 505 nM; in series [3], 836 nM; in series [4] it was 3800 nM; in series [5], 3200 nM; in [6] it was 3700 nM; in series [7], 3600 nM. Besides, the IC50 in [16] stood at 9.6 nM. Also, the Drug uptake result in series [8] is reported as “Not Active”. Also, the ΔTm in [9] amounted to 3.2 °C.
On to `N=C(N)c1ccc(-c2ccc(-c3ccc(Br)cc3)o2)cc1`, for which the IC50 in series [2] worked out at 27 nM; in series [3], 185 nM; in series [4], 2500 nM; in series [5], 2700 nM; in [6], 2600 nM; in series [7], 2400 nM. The ΔTm in series [9] is 4.4 °C.
As for `N=C(N)c1ccc(-c2ccc(-c3ccccc3)o2)cc1`, the concentration for half-maximal inhibition (IC50) came out at 68 nM in series [2]; 139 nM in series [3]; 2700 nM in series [4]; 2000 nM in series [5]; 2400 nM in [6]; 2800 nM in series [7]. Also, the IC50 in [1] is 140 nM. In series [9], the ΔTm was found to be 1.9 °C.
On to `N=C(N)c1ccc(-c2ccc(-c3ccccc3)[nH]2)cc1`, for which the IC50 in series [2] stood at 332 nM; in series [3], 832 nM; in series [4], 3600 nM; in series [5] it was 3800 nM; in [6], 3200 nM; in series [7], 3400 nM.
For `N=C(N)c1ccc(-c2ccc(-c3cccc(F)c3)o2)cc1`, the IC50 in [2] stood at 98 nM; in [3], 111 nM; in [4] it was 2400 nM; in series [5], 2000 nM; in series [6], 2600 nM; in series [7] it was 2800 nM. In addition, the ΔTm in [9] came to 3.2 °C.
As for `CC(=O)O.Cc1ccc(-c2ccc(-c3ccc(C(=N)N)cc3)o2)cc1`, the IC50 was 72 nM in series [2]; 110 nM in series [3]; 3700 nM in [4]; 3400 nM in series [5]; 4800 nM in series [6]; 3100 nM in [7]. The IC50 in series [16] was 57.5 nM. In addition, the Drug uptake result in series [8] is “Not Active”. The ΔTm in [9] stood at 2.8 °C.
Take `CC(C)(C)c1ccc(-c2ccc(-c3ccc(C(=N)N)cc3)o2)cc1`: the IC50 in series [2] was 510 nM; in series [3], 712 nM; in series [4] it was 3800 nM; in series [5], 3200 nM; in series [6], 3700 nM; in [7] it was 3600 nM.
